Measurements from ChEMBL document CHEMBL1671792, “Conformationally constrained farnesoid X receptor (FXR) agonists: heteroaryl replacements of the naphthalene” (Bioorg Med Chem Lett, 2011).
≈ marks a conversion by molar mass, not a printed value. Values belong to the compound of their own block, whether it stands above or below them. Calls of active or inactive are those of the source. The rule behind the calls is not given here.

What was measured:
[1] = biological target: T1, Bile acid receptor (Homo sapiens) (UniProt Q96RI1); test: Agonist activity at human FXR LBD assessed as SRC1 peptide recruitment by FRET assay relative to GW 4064; format: functional
T1 sequence (whole entry): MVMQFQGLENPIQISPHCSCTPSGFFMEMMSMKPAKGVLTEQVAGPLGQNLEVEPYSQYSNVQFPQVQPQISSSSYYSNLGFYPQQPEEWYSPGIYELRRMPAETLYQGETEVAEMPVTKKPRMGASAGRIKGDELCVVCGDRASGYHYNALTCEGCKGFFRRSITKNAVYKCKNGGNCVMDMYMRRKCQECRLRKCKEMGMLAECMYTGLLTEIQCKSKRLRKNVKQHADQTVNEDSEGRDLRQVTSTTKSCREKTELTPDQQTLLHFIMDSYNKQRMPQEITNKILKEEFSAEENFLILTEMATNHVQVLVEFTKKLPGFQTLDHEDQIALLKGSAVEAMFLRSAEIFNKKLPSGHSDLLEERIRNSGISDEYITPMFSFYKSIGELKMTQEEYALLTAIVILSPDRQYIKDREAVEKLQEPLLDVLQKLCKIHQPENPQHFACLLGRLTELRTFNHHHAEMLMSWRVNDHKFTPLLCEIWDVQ

[2] = biological target: T2, Bile acid receptor (Homo sapiens, UniProt Q96RI1); test: Agonist activity at human FXR LBD iexpressed in monkey CV-1 cells assessed as transactivation of luciferase reporter gene expression; format: functional, cell-based
T2 sequence (Q96RI1 whole entry): T1 sequence (whole entry)

[3] = biological target: T1, Bile acid receptor (Homo sapiens); test: Agonist activity at human FXR LBD iexpressed in monkey CV-1 cells assessed as transactivation of luciferase reporter gene expression relative to GW 4064; format: functional, cell-based; set-up: concentration or dose not given beside the values
[4] = biological target: T2, Bile acid receptor; test: Agonist activity at human FXR LBD assessed as SRC1 peptide recruitment by FRET assay; format: functional
[5] = species on record: Homo sapiens; test: Selectivity ratio of EC50 for human FXR to EC50 for human RORalpha
[6] = species on record: Homo sapiens; test: Selectivity ratio of EC50 for human FXR to EC50 for human LRH
[7] = system: Cynomolgus monkey; test: Dose normalized AUC in orally dosed cynomolgus monkey; format: ADME, organism-based, Macaca fascicularis; conditions: in vivo, po
[8] = species on record: Homo sapiens; test: Selectivity ratio of EC50 for human FXR to EC50 for human PPARdelta
[9] = system: Rattus norvegicus; test: Dose normalized AUC in orally dosed rat; format: ADME, organism-based; conditions: in vivo, po
[10] = Solubility of compound in fasted state-simulated intestinal fluid at pH 6.5; format: physicochemical; conditions: simulated gi fluid
[11] = species on record: Homo sapiens; test: Selectivity ratio of EC50 for human FXR to EC50 for human PPARgamma
[12] = biological target: T1, Bile acid receptor (Homo sapiens); test: Binding affinity to human FXR by X-ray crystallography
[13] = species on record: Homo sapiens; test: Selectivity ratio of EC50 for human FXR to EC50 for human LXRalpha
[14] = species on record: Homo sapiens; test: Selectivity ratio of EC50 for human FXR to EC50 for human RXRalpha
[15] = species on record: Homo sapiens; test: Selectivity ratio of EC50 for human FXR to EC50 for human PPARalpha
[16] = species on record: Homo sapiens; test: Selectivity ratio of EC50 for human FXR to EC50 for human PXR
[17] = species on record: Homo sapiens; test: Selectivity ratio of EC50 for human FXR to EC50 for human LXRbeta
[18] = Volume of distribution at steady state in iv dosed mouse; format: ADME, organism-based; conditions: in vivo, read-out: Vdss
[19] = Clearance in iv dosed mouse; format: ADME, organism-based; conditions: in vivo
[20] = system: Canis familiaris; test: Dose normalized AUC in orally dosed Beagle dog; format: ADME, organism-based, Canis lupus familiaris; conditions: in vivo, po
[21] = Half life in iv dosed Beagle dog; format: ADME, organism-based, Canis lupus familiaris; conditions: in vivo
[22] = Clearance in iv dosed cynomolgus monkey; format: ADME, organism-based, Macaca fascicularis; conditions: in vivo
[23] = Oral bioavailability in cynomolgus monkey; format: ADME, organism-based, Macaca fascicularis; conditions: in vivo
[24] = Oral bioavailability in rat; format: ADME, organism-based; conditions: in vivo
[25] = Clearance in iv dosed Beagle dog; format: ADME, organism-based, Canis lupus familiaris; conditions: in vivo
[26] = Oral bioavailability in Beagle dog; format: ADME, organism-based, Canis lupus familiaris; conditions: in vivo
[27] = Volume of distribution at steady state in iv dosed cynomolgus monkey; format: ADME, organism-based, Macaca fascicularis; conditions: in vivo, read-out: Vdss
[28] = Clearance in iv dosed rat; format: ADME, organism-based; conditions: in vivo
[29] = Volume of distribution at steady state in iv dosed rat; format: ADME, organism-based; conditions: in vivo, read-out: Vdss
[30] = Half life in iv dosed rat; format: ADME, organism-based; conditions: in vivo
[31] = system: Mus musculus; test: Dose normalized AUC in orally dosed mouse; format: ADME, organism-based; conditions: in vivo, po
[32] = Half life in iv dosed cynomolgus monkey; format: ADME, organism-based, Macaca fascicularis; conditions: in vivo
[33] = Oral bioavailability in mouse; format: ADME, organism-based; conditions: in vivo
[34] = Half life in iv dosed mouse; format: ADME, organism-based; conditions: in vivo
[35] = Volume of distribution at steady state in iv dosed Beagle dog; format: ADME, organism-based, Canis lupus familiaris; conditions: in vivo, read-out: Vdss

SMILES: CC(C)c1onc(-c2c(Cl)cccc2Cl)c1COc1ccc(-c2ccc3c(C(=O)O)nccc3c2)cc1
Activity [1]: 92%
EC50 [2]: 190 nM
Activity [3]: 102%
EC50 [4]: 380 nM

SMILES: CC(C)c1onc(-c2c(Cl)cccc2Cl)c1COc1ccc(-c2ccc3c(C(=O)O)cccc3c2)cc1
Ratio EC50 [5]: 100
Activity [1]: 134%
Ratio EC50 [6]: 100
AUC [7]: 1130 ng·kg·h/mg/mL
Ratio EC50 [8]: 100
Activity [3]: 104%
AUC [9]: 23 ng·kg·h/mg/mL
solubility [10]: 1 ng/mL (≈ 1.88 nM)
Ratio EC50 [11]: 100
Activity [12]: Active
Ratio EC50 [13]: 100
Ratio EC50 [14]: 100
Ratio EC50 [15]: 100
Ratio EC50 [16]: 100
Ratio EC50 [17]: 100

SMILES: CC(C)COc1cc(C(=O)O)nc2ccc(-c3ccc(OCc4c(-c5c(Cl)cccc5Cl)noc4C(C)C)cc3)cc12
Activity [1]: 105%
EC50 [2]: 81 nM
Activity [3]: 93%
EC50 [4]: 78 nM

SMILES: CC(C)c1onc(-c2c(Cl)cccc2Cl)c1COc1ccc(-c2ccc3c(C(=O)O)ccnc3c2)cc1
Activity [1]: 99%
EC50 [2]: 560 nM
Activity [3]: 85%
EC50 [4]: 340 nM

SMILES: CC(C)c1onc(-c2c(Cl)cccc2Cl)c1COc1ccc(-c2cc3ccc(C(=O)O)nc3cc2F)cc1
Activity [1]: 115%
EC50 [2]: 110 nM
Activity [3]: 107%
EC50 [4]: 240 nM

SMILES: CC(C)c1onc(-c2c(Cl)cccc2Cl)c1COc1ccc(-c2ccc3nc(C(=O)O)nnc3c2)cc1
Activity [1]: 100%
EC50 [2]: > 10000 nM
EC50 [4]: 360 nM

SMILES: CC(C)c1onc(-c2c(Cl)cccc2Cl)c1COc1ccc(-c2ccc3cc(C(=O)O)cnc3c2)cc1
Activity [1]: 87%
EC50 [2]: 260 nM
Activity [3]: 88%
EC50 [4]: 200 nM

SMILES: CC(C)c1onc(-c2c(Cl)cccc2Cl)c1COc1ccc(-c2ccc3nc(C(=O)O)cc(O)c3c2)cc1
Activity [1]: 91%
EC50 [2]: > 10000 nM
EC50 [4]: 51 nM

SMILES: CC(C)c1onc(-c2c(Cl)cccc2Cl)c1COc1ccc(-c2ccc3cc(C(=O)O)ncc3c2)cc1
Vd [18]: 5.1 L/kg
clearance [19]: 29 mL/min/kg
AUC [20]: 320 ng·kg·h/mg/mL
half-life [21]: 3.83 h
Activity [1]: 83%
clearance [22]: 11 mL/min/kg
bioavailability [23]: 2.5%
bioavailability [24]: 30%
clearance [25]: 8.2 mL/min/kg
AUC [7]: 40 ng·kg·h/mg/mL
bioavailability [26]: 15%
EC50 [2]: 77 nM
Vd [27]: 3.1 L/kg
clearance [28]: 18 mL/min/kg
Vd [29]: 1.8 L/kg
half-life [30]: 1.47 h
AUC [31]: 36 ng·kg·h/mg/mL
Activity [3]: 86%
EC50 [4]: 120 nM
AUC [9]: 300 ng·kg·h/mg/mL
half-life [32]: 10.3 h
Activity [12]: Active
bioavailability [33]: 6.3%
half-life [34]: 4.17 h
Vd [35]: 2 L/kg

SMILES: Cc1nc(C(=O)O)nc2ccc(-c3ccc(OCc4c(-c5c(Cl)cccc5Cl)noc4C(C)C)cc3)cc12
Activity [1]: 102%
EC50 [2]: 1000 nM
Activity [3]: 127%
EC50 [4]: 140 nM

SMILES: CC(C)c1onc(-c2c(Cl)cccc2Cl)c1COc1ccc(/C=C/c2cccc(C(=O)O)c2)c(Cl)c1
Activity [12]: Active

SMILES: CC(C)c1onc(-c2c(Cl)cccc2Cl)c1COc1ccc(-c2ccc3nc(C(=O)O)cnc3c2)cc1
Activity [1]: 96%
EC50 [2]: 690 nM
Activity [3]: 109%
EC50 [4]: 150 nM

Other lines, results leading:

Activity [1]: 107%
EC50 [2]: 38 nM
Activity [3]: 101%
EC50 [4]: 140 nM
SMILES: Cc1cc2cc(-c3ccc(OCc4c(-c5c(Cl)cccc5Cl)noc4C(C)C)cc3)ccc2nc1C(=O)O

Activity [1]: 106%
EC50 [2]: 32 nM
Activity [3]: 109%
EC50 [4]: 75 nM
SMILES: CCc1cc(C(=O)O)nc2ccc(-c3ccc(OCc4c(-c5c(Cl)cccc5Cl)noc4C(C)C)cc3)cc12

Activity [1]: 99%
EC50 [2]: 14 nM
Activity [3]: 84%
EC50 [4]: 52 nM
SMILES: CCOc1cc(C(=O)O)nc2ccc(-c3ccc(OCc4c(-c5c(Cl)cccc5Cl)noc4C(C)C)cc3)cc12

Activity [1]: 113%
EC50 [2]: 22 nM
Activity [3]: 93%
EC50 [4]: 59 nM
SMILES: CCCOc1cc(C(=O)O)nc2ccc(-c3ccc(OCc4c(-c5c(Cl)cccc5Cl)noc4C(C)C)cc3)cc12

Activity [1]: 113%
EC50 [2]: 14 nM
Activity [3]: 103%
EC50 [4]: 40 nM
SMILES: CC(C)Oc1cc(C(=O)O)nc2ccc(-c3ccc(OCc4c(-c5c(Cl)cccc5Cl)noc4C(C)C)cc3)cc12

Activity [1]: 87%
EC50 [2]: 52 nM
Activity [3]: 91%
EC50 [4]: 250 nM
SMILES: Cc1cc(OCc2c(-c3c(Cl)cccc3Cl)noc2C(C)C)ccc1-c1ccc2nc(C(=O)O)ccc2c1

Activity [1]: 108%
EC50 [2]: 24 nM
Activity [3]: 107%
EC50 [4]: 81 nM
SMILES: Cc1cc(C(=O)O)nc2ccc(-c3ccc(OCc4c(-c5c(Cl)cccc5Cl)noc4C(C)C)cc3)cc12

Activity [1]: 113%
EC50 [2]: 17 nM
Activity [3]: 107%
EC50 [4]: 58 nM
SMILES: COc1cc(C(=O)O)nc2ccc(-c3ccc(OCc4c(-c5c(Cl)cccc5Cl)noc4C(C)C)cc3)cc12

Activity [1]: 100%
EC50 [2]: 44 nM
Activity [3]: 94%
EC50 [4]: 110 nM
SMILES: Cc1cc(-c2ccc3nc(C(=O)O)ccc3c2)ccc1OCc1c(-c2c(Cl)cccc2Cl)noc1C(C)C
